Measured values reported in patent publication EP4711366A1, “PYRIMIDO MACROHETEROCYCLIC COMPOUND AS WEE1-YES DUAL-TARGET INHIBITOR AND USE THEREOF” (Mindrank AI Ltd., priority 2023, dated 2024).
Converted amounts (≈) assume the structure as drawn.

Tests used:
[1] = tested on: Human ovarian cancer OVCAR-3 cells; experiment: In vivo efficacy study against OVCAR-3 tumors (subcutaneous tumor-bearing model); design: species or system BALB/c nude mice; settings: 80mg/kg, PO, QD×28
Experimental: Human ovarian cancer OVCAR-3 cells were subcultured and expanded in an RPMI-1640 culture medium containing 20% FBS and 0.01 mg/mL bovine insulin. BALB/c nude mice aged 6-8 weeks were taken and each subcutaneously injected with 5 × 10^6 cells to establish a tumor-bearing model. The tumor volume was monitored, and when the tumor volume reached about 150 mm^3, the animals were randomized into 5 groups according to body weight and tumor volume. The animals were given, by oral gavage, the vehicle or compounds to be tested (ZN-c3 and IE) once daily for a total of 28 days. During the period of administration, the tumor volume and the animal body weight were measured twice a week, and the animals' states were observed daily. At the endpoint, the animals were euthanized with carbon dioxide, and the subcutaneous tumors were isolated and weighed.
The data calculation formulae are shown below: The tumor volume (TV) was calculated using the formula 1/2×axb^2, where a and b represent the length and width measurements of the tumor, respectively.
The tumor growth inhibition rate (%TGITV) was calculated using the formula (1 - TVT/TVC) × 100%, where TVc represents the average tumor volume of the negative control group, and TVT represents the average tumor volume of the treatment group.
The relative tumor volume (RTV) was calculated using the formula Vt/V0, where V0 represents the tumor volume at the time of grouping, and Vt represents the tumor volume at each measurement.

[2] = Equilibrium solubility study of polymorphs in different vehicles; assay type: physicochemical; settings: 37±2 °C, suspension ~10 mg/mL; for Equilibrium solubility: 24 h, 1440 min, in mg/mL (unit assumed)
Experimental: The equilibrium solubility of the crystal forms A, B, C, and D of compound (IE) was tested in water (H2O), fasted state simulated gastric fluid (FaSSGF), fasted state simulated intestinal fluid (FaSSIF), and fed state simulated intestinal fluid (FeSSIF). In the test, the solids were suspended in corresponding buffers to formulate suspensions (~10 mg/mL) and mixed at 37±2 °C. After 24 h, samples of the suspensions were taken. The supernatant was filtered, and the concentration was determined.

[3] = Solid-state stability study of polymorphs; assay type: physicochemical; settings: for Initial purity (%): HPLC purity before storage
[4] = 25 °C/60% RH, 7 days (long-term)
[5] = 40 °C/75% RH, 7 days (accelerated)
[6] = 60 °C, 7 days (high-temperature, RH < 30%)
[7] = long-term conditions for 7 days
[8] = high-temperature and accelerated conditions for 7 days

Compound	Relative tumor inhibition (%) Day 28 [1]	Relative tumor volume Day 28 [1]	Equilibrium solubility ([2]; FaSSGF)	Equilibrium solubility ([2]; FaSSIF)	Equilibrium solubility ([2]; FeSSIF)	Crystal form [3, 4]	Purity (%) [3, 4]	Crystal form [3, 5]	Purity (%) [3, 5]	Crystal form [3, 6]	Purity (%) [3, 6]	Initial purity (%) [3]	solid-state stability (in words) [3, 7]	solid-state stability (in words) [3, 8]	solubility thermodynamic at 24 h ([2]; fassgf)
C=CCn1c(=O)c2cnc(Nc3ccc(N4CCN(C)CC4)cc3)nc2n1-c1cccc(C(C)(C)O)n1 [AZD-1775, reference compound]	58.28%	2.18	–	–	–	–	–	–	–	–	–	–	–	–	–
Cc1cc(Nc2ncc3c(=O)n4n(c3n2)-c2cccc(n2)[C@](C)(O)CC/C=C\C4)ccc1OC1CCN(C)CC1 [Crystal form A of compound IE]	–	–	>10	1.73	0.27	Crystal form A	98.01%	Crystal form E	98.11%	Crystal forms A+E	98.06%	98.08%	remained stable	–	–
Cc1cc(Nc2ncc3c(=O)n4n(c3n2)-c2cccc(n2)[C@](C)(O)CC/C=C\C4)ccc1OC1CCN(C)CC1 [Crystal form B of compound IE]	–	–	>10	1.23	2.07	Crystal form B	98.01%	Crystal form B	98.25%	Crystal form B	98.24%	97.97%	remained stable	remained stable	–
Cc1cc(Nc2ncc3c(=O)n4n(c3n2)-c2cccc(n2)[C@](C)(O)CC/C=C\C4)ccc1OC1CCN(C)CC1 [Crystal form C of compound IE]	–	–	>10	0.710	1.299	Crystal form C	98.75%	Crystal form C	98.73%	Crystal form C	98.72%	98.74%	remained stable	remained stable	–
Cc1cc(Nc2ncc3c(=O)n4n(c3n2)-c2cccc(n2)[C@](C)(O)CC/C=C\C4)ccc1OC1CCN(C)CC1 [Crystal form D of compound IE]	–	–	–	0.81	0.11	Crystal form D	97.82%	Crystal form D	97.87%	Crystal form D	97.74%	97.79%	remained stable	remained stable	8440 µg/mL (≈ 15.6 mM)
